Test results published in the NIST ThermoML archive (doi:10.1021/je901020a).

Columns and labels:
[1] = refractive index (Na D-line) (dimensionless); xn = mol fraction of the nth substance listed; details: 101 kPa, Liquid, Standard Abbe refractometry
[2] = xn = mol fraction of the nth substance listed; details: 101 kPa, Liquid; for speed of sound: Pulse-echo method

Cc1cccc(C)c1 [1,3-dimethylbenzene] + C1CCCCC1
Details	mass density, [2] [kg/m3]	refractive index, [1]	speed of sound, [2] [m/s]
298.15 K, x2 = 0	859.8	1.49466	1321
298.15 K, x2 = 0.0346	856.9	1.49219	1317
298.15 K, x2 = 0.096	851.4	1.48781	1310
298.15 K, x2 = 0.1974	842.2	1.48052	1300
298.15 K, x2 = 0.2879	834.1	1.47391	1291
298.15 K, x2 = 0.3982	824.1	1.46589	1281
298.15 K, x2 = 0.5005	815	1.45851	1273
298.15 K, x2 = 0.6019	806.2	1.45128	1267
298.15 K, x2 = 0.6976	797.9	1.44447	1261
298.15 K, x2 = 0.7985	789.4	1.43723	1257
298.15 K, x2 = 0.9021	781.1	1.42992	1254
298.15 K, x2 = 0.9509	777.4	1.42673	1254
313.15 K, x2 = 0	846.9	1.48653	1259
313.15 K, x2 = 0.0355	843.7	1.48408	1255
313.15 K, x2 = 0.095	838.3	1.47988	1248
313.15 K, x2 = 0.1903	829.6	1.47305	1238
313.15 K, x2 = 0.2937	820.2	1.46566	1227
313.15 K, x2 = 0.3969	810.8	1.45826	1217
313.15 K, x2 = 0.4919	802.3	1.45153	1209
313.15 K, x2 = 0.5952	793.1	1.44402	1200
313.15 K, x2 = 0.6963	784.3	1.43677	1193
313.15 K, x2 = 0.7968	775.5	1.42954	1187
313.15 K, x2 = 0.8984	767.3	1.42246	1183
313.15 K, x2 = 0.9496	763.45	1.41885	1182

C1CCCC1 [cyclopentane] + Cc1cc(C)cc(C)c1
Details	mass density, [2] [kg/m3]	refractive index, [1]	speed of sound, [2] [m/s]
298.15 K, x1 = 0.0383	857.8	1.49446	1332
298.15 K, x1 = 0.0884	853.3	1.49105	1325
298.15 K, x1 = 0.1869	843.9	1.48398	1311
298.15 K, x1 = 0.2531	837.5	1.47925	1302
298.15 K, x1 = 0.3849	823.5	1.46883	1283
298.15 K, x1 = 0.4879	811.9	1.4596	1269
298.15 K, x1 = 0.5891	799.5	1.45045	1255
298.15 K, x1 = 0.6926	786	1.4403	1241
298.15 K, x1 = 0.7807	774	1.43111	1229
298.15 K, x1 = 0.8901	757.9	1.41728	1216
298.15 K, x1 = 0.9487	748.6	1.40994	1210
298.15 K, x1 = 1	740	1.40292	1204
313.15 K, x1 = 0.0414	845.1	1.48675	1271
313.15 K, x1 = 0.0948	840.2	1.48324	1263
313.15 K, x1 = 0.1986	830.2	1.47585	1248
313.15 K, x1 = 0.2985	819.9	1.46786	1232
313.15 K, x1 = 0.4078	807.7	1.45906	1216
313.15 K, x1 = 0.4703	800.3	1.45335	1206
313.15 K, x1 = 0.6043	783.5	1.4411	1186
313.15 K, x1 = 0.7006	770.4	1.4312	1171
313.15 K, x1 = 0.8048	755.4	1.42003	1155
313.15 K, x1 = 0.9074	739.7	1.40648	1140
313.15 K, x1 = 0.9595	731.4	1.40014	1134
313.15 K, x1 = 1	725	1.39456	1130
